According to paper PMC12292302, “Revealing the Improving Effect and Molecular Mechanism of L-Clausenamide in Combating the Acute Lung Injury: Insights from Network Pharmacology, Molecular Docking, and In Vitro Validation” (Biology, 2025):

Biological target: AKT1 (RAC-alpha serine/threonine-protein kinase) (Homo sapiens, UniProt P31749)
Experiment: SPR (Biacore 8K+, CM7 chip, purchased AKT1 protein MCE HY-P74421)
Assay type: binding

Chain of AKT1 (RAC-alpha serine/threonine-protein kinase) (P31749 whole entry): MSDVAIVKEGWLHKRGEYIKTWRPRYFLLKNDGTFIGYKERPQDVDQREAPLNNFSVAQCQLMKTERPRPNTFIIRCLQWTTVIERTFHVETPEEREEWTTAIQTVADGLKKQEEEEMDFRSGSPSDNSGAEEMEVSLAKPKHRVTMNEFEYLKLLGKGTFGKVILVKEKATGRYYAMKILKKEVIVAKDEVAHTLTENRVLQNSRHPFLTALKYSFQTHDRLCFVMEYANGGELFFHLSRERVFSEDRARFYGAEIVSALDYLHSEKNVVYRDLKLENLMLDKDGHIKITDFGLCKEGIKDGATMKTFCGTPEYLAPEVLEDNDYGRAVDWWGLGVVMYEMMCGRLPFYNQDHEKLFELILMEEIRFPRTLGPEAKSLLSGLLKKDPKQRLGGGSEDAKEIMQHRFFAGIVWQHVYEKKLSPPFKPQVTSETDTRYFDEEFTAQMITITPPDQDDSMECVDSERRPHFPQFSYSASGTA

Kd: 10.3 µM
SMILES: CN1C(=O)[C@@H](O)[C@H](c2ccccc2)[C@@H]1[C@@H](O)c1ccccc1 [L-Clausenamide]
